# Data taken from US5686061A, “Particulate contrast media derived from non-ionic water soluble contrast agents for CT enhancement of hepatic tumors” (priority 1994, dated 1997).
# “Also recorded” adds a separate entry of the source. Like-named read-outs stand apart in the source and are kept apart here.
# What was measured:
# [1] = background; cited from earlier work
# endothelial cells = conditions: background; cited from earlier work
# [2] = Enzymatic degradation of IX-C particles in rabbit plasma; format: in vitro ADME; conditions: plasma samples
# Description: (§1) Degradation of IX-C particles was investigated by incubating a suspension of the particles (25 mg) in the following solutions (each 1 ml) at 37° C.:0.1 N HCl, 0.1 N NaOH, saline, and rabbit plasma. The disappearance of the particles in the suspensions was noted by visual observations and the integrity of the particles was examined by scanning electron microscopy. To identify the degradation products, the residual solutions were subjected to analysis by HPLC. The HPLC system consisted of a RP-18 column, a Perkin-Elmer isocratic LC pump (Model 250), a PE Nelson 900 series interface, a Spectra-Physics UV/Vis detector (Model SP 8540) and a data station. The eluant (10% methanol in double distilled water) was run at 0.8 ml/min. with UV detection at 254 nm. Samples in HCl or NaOH were neutralized before injection. Plasma samples were first treated with PCA (0.4 N) and centrifuged to remove precipitate proteins. The supernatants were then injected for HPLC analysis.
# Solubility of IX-C = format: physicochemical
# [3] = Hydrolytic degradation of IX-C particles (HCl, NaOH, saline); format: physicochemical; conditions: supernatants of all samples (HCl, NaOH, saline, plasma)
# Description: as §1
# Swiss Webster mice = assay: in vivo; conditions: male and female mice
# Description: (§2) Swiss Webster mice (Harlan Sprague Dawley Inc., Indianapolis, Ind.) weighing between 25 and 30 g were given doses ranging from 0.2 to 1 ml/mouse. Five animals were used for each dose. No anesthesia was used for injection. Following the injection, animals were monitored daily for 7 days. The percentage survival vs. dose curve was constructed to estimate LD50.
# in vivo = conditions: mouse, in vivo, iv
# Description: as §2
# liver = assay: Computed tomography of liver in normal rabbits; format: in vivo, New Zealand white rabbits; conditions: predicted from CT imaging data
# Description: New Zealand white rabbits (male, 3.0 to 3.5 kg) were anesthetized by an intramuscular injection of a solution containing xylazine (8.6 mg/ml), ketamine (42.9 mg/ml), and acepromazine (1.4 mg/ml) at a dose of 0.4 ml/kg for a long-lasting effect. Intravenous catheters (22-gauge) were placed in a marginal ear vein for the introduction of particle suspension. Rabbits were positioned supine in a GE model 9800 Quick scanner (Milwaukee, Wis.). The particulate contrast agent of proper volume (8% I, w/v in saline) was injected through the catheterized ear vein over a period of 10 to 15 minutes.
# CT imaging of radiopaque particles (80 mg I/ml) was carried out at doses of 100, 200, and 270 mg I/kg body weight respectively. Three rabbits were used for each dose level. CT imaging was done with a scan speed of 1.0 seconds, 120 kV, 280 mAs, and a 25-cm field of view. Sequential, contiguous 3-mm-thick slices through the abdomen and 5-mm-thick-slices through the pelvis were obtained before contrast injection, immediately after injection and at various times (15 and 30 minutes, 1, 2, and 6 hours, and 1, 2, and 7 days after injection). The rabbits were killed with an overdose of pentobarbital sodium (50 mg/kg) administered via the catheterized ear vein.
# Densitometric analysis of the liver, kidney, aorta, and bladder were performed. […]
structure (smiles),measurement,setting,value
CC(=O)N(CC(O)CO)c1c(I)c(C(=O)NCCO)c(I)c(C(=O)NCC(O)CO)c1I (centres unmarked) [IOXILAN],overall biological tolerance,[1],high overall biological tolerance
"O=C(CCCCC(=O)Nc1c(I)cc(I)c(C(=O)O)c1I)Nc1c(I)cc(I)c(C(=O)O)c1I [Iodipamide, iodipamide]",toxicity to endothelial cells,endothelial cells,toxic to endothelial cells
"CC(=O)N(CC1COC(=O)O1)c1c(I)c(C(=O)NCC2COC(=O)O2)c(I)c(C(=O)N2CCOC2=O)c1I (centres unmarked) [IX-C, cyclic carbonate of IOXILAN]",degradation product confirmed by FAB mass spectroscopy,[2],presence of IOXILAN was confirmed
same,lipid solubility,Solubility of IX-C,lipid soluble
same,solubility in acetone,Solubility of IX-C; acetone,soluble in acetone
same,solubility in methylene chloride,Solubility of IX-C; methylene chloride,limited solubility in methylene chloride; also recorded: slightly soluble in methylene chloride
same,solubility in water,Solubility of IX-C; water,insoluble in water
same,degradation products (HPLC),[3],IOXILAN and carbon dioxide
same,LD50 compared with those reported for other particulate CM,Swiss Webster mice,slightly higher than those reported for other particulate CM
same,LD50 at 168 h,"in vivo; female Swiss Webster mice, tail vein, 7 days, read-out: LD50, females, as iodine",1200 mg/kg
same,LD50 at 168 h,"in vivo; female Swiss Webster mice, corresponding IX-C dose, read-out: LD50, females, as IX-C",2600 mg/kg
same,LD50 at 168 h,"in vivo; male Swiss Webster mice, tail vein, 7 days, read-out: LD50, males, as iodine",1400 mg/kg
same,LD50 at 168 h,"in vivo; male Swiss Webster mice, corresponding IX-C dose, read-out: LD50, males, as IX-C",3100 mg/kg
same,predicted diagnostic dose,liver,100 mg I/kg body weight
